Laboratory results published in ChEMBL document CHEMBL1201862, “PubChem BioAssay data set” (2004).
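1) Cells in 96-well plates. 2) Compound, 48 h, 5 concentrations. 3) Linear interpolation between surrounding doses. 4) Unreached endpoint = highest concentration. GI50: concentration for 50% inhibition of growth.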 The source made the active and inactive calls. No stated cut-off is given here; in the data, active = GI50 up to about 1.1 µM and inactive = higher.

Tests used:
Assay in all cases: NCI-60 cell line screen, 48 h
[1] = test system: SK-MEL-2
[2] = test system: OVCAR-8
[3] = test system: SK-MEL-28
[4] = test system: NCI/ADR-RES
[5] = test system: HT-29
[6] = test system: KM-20L2
[7] = test system: Hs-578T
[8] = test system: RXF 393
[9] = test system: SR
[10] = test system: LOX IMVI
[11] = test system: T47D
[12] = test system: CAKI-1
[13] = test system: A549
[14] = test system: HL-60
[15] = test system: MCF7
[16] = test system: SF-539
[17] = test system: IGROV-1
[18] = test system: K562
[19] = test system: EKVX
[20] = test system: BT-549

Row | SMILES | GI50 [1] | GI50 [2] | GI50 [3] | GI50 [4] | GI50 [5] | GI50 [6] | GI50 [7] | GI50 [8] | GI50 [9] | GI50 [10] | GI50 [11] | GI50 [12] | GI50 [13] | GI50 [14] | GI50 [15] | GI50 [16] | GI50 [17] | GI50 [18] | GI50 [19] | GI50 [20]
1 | COc1ccc(/C=C2\C(=O)NC(=O)c3ccccc32)cc1OC | 45.3 µM (inactive) | 10.1 µM (inactive) | > 77.3 µM (inactive) | 42.2 µM (inactive) | 54.8 µM (inactive) | 5.07 µM (inactive) | 53.5 µM (inactive) | 12.2 µM (inactive) | 2.42 µM (inactive) | 10.5 µM (inactive) | > 100 µM (inactive) | 26.7 µM (inactive) | 48.2 µM (inactive) | 2.68 µM (inactive) | 56.9 µM (inactive) | 9.12 µM (inactive) | 13.8 µM (inactive) | 3.15 µM (inactive) | 31.6 µM (inactive) | > 100 µM (inactive)
2 | O=[N+]([O-])c1cccc2nc3ccccc3c(NCCO)c12 | 0.00502 µM (active) | – | 0.00217 µM (active) | 0.00566 µM (active) | 0.000108 µM (active) | 0.000121 µM (active) | 0.00684 µM (active) | 0.00169 µM (active) | 2.36e-05 µM (active) | 0.00418 µM (active) | 0.000611 µM (active) | 0.00323 µM (active) | 0.0034 µM (active) | 0.00325 µM (active) | 0.0021 µM (active) | 0.00262 µM (active) | 0.00269 µM (active) | 0.000237 µM (active) | 0.00111 µM (active) | 0.00514 µM (active)
3 | COc1c(O)c(O)cc2c1-c1ccc(OC)c(=O)cc1C(NC(C)=O)CC2 (centres undefined) | 3.15 µM (inactive) | 7.55 µM (inactive) | 8.07 µM (inactive) | 29 µM (inactive) | 3.07 µM (inactive) | 2.7 µM (inactive) | 2.66 µM (inactive) | 2.84 µM (inactive) | 3.24 µM (inactive) | 4.84 µM (inactive) | > 100 µM (inactive) | 24.2 µM (inactive) | 37.4 µM (inactive) | 4.85 µM (inactive) | 2.61 µM (inactive) | 2.81 µM (inactive) | 5.26 µM (inactive) | 3.57 µM (inactive) | 25.5 µM (inactive) | 2.22 µM (inactive)
4 | CCNCC(=O)O[C@]1(CC)C(=O)OCc2c1cc1n(c2=O)Cc2cc3ccccc3nc2-1 | 2.77 µM (inactive) | 0.27 µM (active) | 3.56 µM (inactive) | 0.114 µM (active) | 0.889 µM (active) | 1.14 µM (inactive) | 25.8 µM (inactive) | 0.264 µM (active) | < 0.0118 µM (active) | 0.0893 µM (active) | 0.203 µM (active) | 0.0559 µM (active) | 0.157 µM (active) | 0.056 µM (active) | 0.0693 µM (active) | 0.0466 µM (active) | 2.2 µM (inactive) | 0.598 µM (active) | 2.44 µM (inactive) | 1.05 µM (active)
